In patent publication US20230265103A1 (TME Therapeutics LLC, priority 2021, published 2023):
pIC50: −log10 of the molar value.

These molecules were tested against T1, PIKFYVE (Homo sapiens, UniProt Q9Y2I7) (assay: KINOMEscan Kinase Assay (Eurofins), PIKFYVE inhibitory activity). Settings: @ 5 nM.
T1 construct: purchased Eurofins (KINOMEscan); host or cells: E. coli BL21-derived (T7 phage display) or HEK-293
T1 sequence (Q9Y2I7 whole entry): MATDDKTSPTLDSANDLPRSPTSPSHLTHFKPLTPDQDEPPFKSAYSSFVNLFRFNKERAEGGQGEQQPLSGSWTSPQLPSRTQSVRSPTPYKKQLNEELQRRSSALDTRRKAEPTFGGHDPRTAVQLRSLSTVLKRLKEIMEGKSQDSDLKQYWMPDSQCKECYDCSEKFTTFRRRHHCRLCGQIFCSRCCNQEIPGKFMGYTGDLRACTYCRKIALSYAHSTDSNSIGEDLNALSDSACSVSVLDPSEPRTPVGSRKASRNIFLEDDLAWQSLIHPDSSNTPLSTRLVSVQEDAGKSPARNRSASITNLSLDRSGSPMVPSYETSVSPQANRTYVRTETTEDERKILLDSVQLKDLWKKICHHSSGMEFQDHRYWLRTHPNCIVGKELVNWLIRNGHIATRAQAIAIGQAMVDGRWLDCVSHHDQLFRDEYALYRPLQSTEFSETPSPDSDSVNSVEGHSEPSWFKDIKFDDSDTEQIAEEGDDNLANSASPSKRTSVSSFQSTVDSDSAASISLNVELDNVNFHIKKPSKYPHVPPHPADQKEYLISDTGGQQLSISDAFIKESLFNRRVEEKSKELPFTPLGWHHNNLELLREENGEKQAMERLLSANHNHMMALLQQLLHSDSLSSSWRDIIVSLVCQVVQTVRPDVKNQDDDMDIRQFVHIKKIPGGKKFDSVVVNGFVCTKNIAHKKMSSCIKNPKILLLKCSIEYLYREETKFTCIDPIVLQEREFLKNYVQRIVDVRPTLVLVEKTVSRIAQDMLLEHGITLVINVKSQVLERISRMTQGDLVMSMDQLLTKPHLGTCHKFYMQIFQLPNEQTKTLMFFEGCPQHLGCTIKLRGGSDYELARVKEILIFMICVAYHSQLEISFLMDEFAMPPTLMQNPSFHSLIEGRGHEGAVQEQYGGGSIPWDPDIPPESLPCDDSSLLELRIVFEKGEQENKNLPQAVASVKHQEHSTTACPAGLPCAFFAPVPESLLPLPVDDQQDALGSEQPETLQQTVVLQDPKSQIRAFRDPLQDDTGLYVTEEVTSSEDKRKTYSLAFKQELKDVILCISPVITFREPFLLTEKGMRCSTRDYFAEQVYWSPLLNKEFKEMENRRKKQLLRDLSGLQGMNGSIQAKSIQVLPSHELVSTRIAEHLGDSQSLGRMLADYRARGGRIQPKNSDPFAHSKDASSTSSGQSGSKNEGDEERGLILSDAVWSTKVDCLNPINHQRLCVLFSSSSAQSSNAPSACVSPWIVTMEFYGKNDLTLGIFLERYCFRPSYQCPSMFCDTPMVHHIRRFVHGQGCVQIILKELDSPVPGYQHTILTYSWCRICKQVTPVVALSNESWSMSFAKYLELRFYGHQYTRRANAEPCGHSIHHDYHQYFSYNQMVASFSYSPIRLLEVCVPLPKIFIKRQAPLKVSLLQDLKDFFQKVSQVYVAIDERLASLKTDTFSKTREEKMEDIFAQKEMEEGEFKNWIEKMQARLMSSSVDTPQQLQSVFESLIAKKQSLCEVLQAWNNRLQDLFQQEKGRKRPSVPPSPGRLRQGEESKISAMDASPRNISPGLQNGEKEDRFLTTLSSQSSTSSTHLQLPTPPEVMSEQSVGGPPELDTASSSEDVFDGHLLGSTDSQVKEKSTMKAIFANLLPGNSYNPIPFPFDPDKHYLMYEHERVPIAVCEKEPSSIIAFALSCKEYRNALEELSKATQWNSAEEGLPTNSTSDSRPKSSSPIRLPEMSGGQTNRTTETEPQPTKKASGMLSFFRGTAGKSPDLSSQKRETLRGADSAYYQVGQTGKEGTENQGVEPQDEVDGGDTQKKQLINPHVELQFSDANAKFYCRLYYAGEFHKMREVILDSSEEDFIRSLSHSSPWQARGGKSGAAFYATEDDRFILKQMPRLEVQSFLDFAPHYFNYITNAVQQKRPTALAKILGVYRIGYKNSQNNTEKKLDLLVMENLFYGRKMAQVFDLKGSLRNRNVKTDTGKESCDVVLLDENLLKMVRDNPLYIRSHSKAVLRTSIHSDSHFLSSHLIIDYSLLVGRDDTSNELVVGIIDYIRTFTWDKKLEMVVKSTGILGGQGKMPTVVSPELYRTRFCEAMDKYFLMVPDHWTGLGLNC
Format: binding
In the case of `CO[C@@H](C)c1cccc(-c2ccn(-c3cc(N4CCOCC4)c4sc(CN5CCOCC5)cc4n3)n2)c1` (single isomer, unassigned) [Ex. 212, 4-(5-(3-(3-(1-methoxyethyl)phenyl)-1H-pyrazol-1-yl)-2-(morpholinomethyl)thieno[3,2-b]pyridin-7-yl)morpholine], the inhibition at 0.005 µM was 0%.

Same assay, conditions: @ 50 nM
`Cc1cccc(-c2ccn(-c3nc(N4CCOCC4)c4sc(CN5CCC(C(C)(C)O)CC5)cc4n3)n2)c1` [Ex. 5, 2-(1-((4-morpholino-2-(3-(m-tolyl)-1H-pyrazol-1-yl)thieno[3,2-d]pyrimidin-6-yl)methyl)piperidin-4-yl)propan-2-ol] gave an inhibition at 0.05 µM of 100%.
For `Cc1cccc(-c2ccn(-c3nc(N4CCOCC4)c4sc(CN5CCC(N(C)S(C)(=O)=O)CC5)cc4n3)n2)c1` [Ex. 6, N-methyl-N-(1-((4-morpholino-2-(3-(m-tolyl)-1H-pyrazol-1-yl)thieno[3,2-d]pyrimidin-6-yl)methyl)piperidin-4-yl)methanesulfonamide], the inhibition at 0.05 µM was 100%.
In the case of `CC(=O)N(C)C1CCN(Cc2cc3nc(-n4ccc(-c5cccc(C)c5)n4)nc(N4CCOCC4)c3s2)CC1` [Ex. 7, N-methyl-N-(1-((4-morpholino-2-(3-(m-tolyl)-1H-pyrazol-1-yl)thieno[3,2-d]pyrimidin-6-yl)methyl)piperidin-4-yl)acetamide], the inhibition at 0.05 µM was 100%.

Same assay, conditions: KINOMEscan
Work on `Cc1cccc(-c2ccn(-c3nc(N4CCOCC4)c4sc(CN5CCC(N6CCC6)C(F)C5)cc4n3)n2)c1` (stereo not drawn) yielded a pIC50 of over 9.00.
With `CS(=O)(=O)N1CCN(Cc2cc3nc(-n4ccc(-c5cccc(Br)c5)n4)nc(N4CCOCC4)c3s2)CC1` [Ex. 1, 4-(2-(3-(3-bromophenyl)-1H-pyrazol-1-yl)-6-((4-(methylsulfonyl)piperazin-1-yl)methyl)thieno[3,2-d]pyrimidin-4-yl)morpholine] the pIC50 was 8.00 to 9.00.
Molecule `COc1cccc(-c2ccn(-c3nc(N4CCOCC4)c4sc(CN5CCN(S(C)(=O)=O)CC5)cc4n3)n2)c1` [Ex. 3, 4-(2-(3-(3-methoxyphenyl)-1H-pyrazol-1-yl)-6-((4-(methylsulfonyl)piperazin-1-yl)methyl)thieno[3,2-d]pyrimidin-4-yl)morpholine] has a pIC50 of 8.00 to 9.00.
For `Cc1cccc(-c2ccn(-c3nc(N4CCOCC4)c4sc(CN5CCC(N(C)C)CC5)cc4n3)n2)c1` [Ex. 4, N, N-dimethyl-1-((4-morpholino-2-(3-(m-tolyl)-1H-pyrazol-1-yl)thieno[3,2-d]pyrimidin-6-yl)methyl)piperidin-4-amine], the pIC50 was over 9.00.
`Cc1cccc(-c2ccn(-c3nc(N4CCOCC4)c4nc(CN5CCN(S(C)(=O)=O)CC5)sc4n3)n2)c1` [Ex. 9, 4-(2-((4-(methylsulfonyl)piperazin-1-yl)methyl)-5-(3-(m-tolyl)-1H-pyrazol-1-yl)thiazolo[5,4-d]pyrimidin-7-yl)morpholine] was tested, and the pIC50 was 8.00 to 9.00.
With `Cc1cccc(-c2ccn(-c3nc(N4CCOCC4)c4nc(CN5CCN(S(C)(=O)=O)CC5)[nH]c4n3)n2)c1` [Ex. 10, 4-(8-((4-(methylsulfonyl)piperazin-1-yl)methyl)-2-(3-(m-tolyl)-1H-pyrazol-1-yl)-9H-purin-6-yl)morpholine] the pIC50 was over 9.00.
`Cc1cccc(-c2ccn(-c3nc(N4CCOCC4)c4nc(CN5CCC(N(C)S(C)(=O)=O)CC5)[nH]c4n3)n2)c1` [Ex. 11, N-methyl-N-(1-((6-morpholino-2-(3-(m-tolyl)-1H-pyrazol-1-yl)-9H-purin-8-yl)methyl)piperidin-4-yl)methanesulfonamide] was tested, and the pIC50 was 8.00 to 9.00.
With `Cc1cccc(-c2ccn(-c3nc(N4CCOCC4)c4nc(C(C)N5CCN(S(C)(=O)=O)CC5)sc4n3)n2)c1` (stereo not drawn) [Ex. 12, 4-(2-(1-(4-(methylsulfonyl)piperazin-1-yl)ethyl)-5-(3-(m-tolyl)-1H-pyrazol-1-yl)thiazolo[5,4-d]pyrimidin-7-yl)morpholine] the pIC50 was 8.00 to 9.00.
Molecule `Cc1cccc(-c2ccn(-c3nc(N4CCOCC4)c4nc(CN5CCC(C(C)(C)O)CC5)[nH]c4n3)n2)c1` [Ex. 13, 2-(1-((6-morpholino-2-(3-(m-tolyl)-1H-pyrazol-1-yl)-9H-purin-8-yl)methyl)piperidin-4-yl)propan-2-ol] has a pIC50 of 8.00 to 9.00.
`Cc1cccc(-c2ccn(-c3nc(N4CCOCC4)c4nc(CN5CCOCC5)[nH]c4n3)n2)c1` [Ex. 14, 4-((6-morpholino-2-(3-(m-tolyl)-1H-pyrazol-1-yl)-9H-purin-8-yl)methyl) morpholine] showed a pIC50 of 8.00 to 9.00.
For `Cc1cccc(-c2ccn(-c3nc(N4CCOCC4)c4nc(CN5CCC(N(C)C)CC5)[nH]c4n3)n2)c1` [Ex. 15, N,N-dimethyl-1-((6-morpholino-2-(3-(m-tolyl)-1H-pyrazol-1-yl)-9H-purin-8-yl)methyl)piperidin-4-amine], the pIC50 was over 9.00.
For `Cc1cccc(-c2ccn(-c3nc(N4CCOCC4)c4nc(CN5CCC(N(C)C)CC5)sc4n3)n2)c1` [Ex. 16, N,N-dimethyl-1-((7-morpholino-5-(3-(m-tolyl)-1H-pyrazol-1-yl)thiazolo[5,4-d]pyrimidin-2-yl)methyl)piperidin-4-amine], the pIC50 was over 9.00.
Molecule `Cc1cccc(-c2ccn(-c3nc(N4CCOCC4)c4sc(C(C)N5CCC(N(C)C)CC5)cc4n3)n2)c1` (stereo not drawn) [Ex. 17, N,N-dimethyl-1-(1-(4-morpholino-2-(3-(m-tolyl)-1H-pyrazol-1-yl)thieno[3,2-d]pyrimidin-6-yl)ethyl)piperidin-4-amine] has a pIC50 of over 9.00.
In the case of `Cc1cccc(-c2ccn(-c3nc(N4CCOCC4)c4sc(CN5CC[C@@H](N(C)C)C5)cc4n3)n2)c1` [Ex. 18, (R)—N,N-dimethyl-1-((4-morpholino-2-(3-(m-tolyl)-1H-pyrazol-1-yl)thieno[3,2-d]pyrimidin-6-yl)methyl)pyrrolidin-3-amine], the pIC50 was over 9.00.
Work on `Cc1cccc(-c2ccn(-c3nc(N4CCOCC4)c4sc(CN5CC[C@H](N(C)C)C5)cc4n3)n2)c1` [Ex. 19, (S)—N,N-dimethyl-1-((4-morpholino-2-(3-(m-tolyl)-1H-pyrazol-1-yl)thieno[3,2-d]pyrimidin-6-yl)methyl)pyrrolidin-3-amine] yielded a pIC50 of over 9.00.
`Cc1cccc(-c2ccn(-c3nc(N4CCOCC4)c4sc(CN5CC6C(C5)C6N(C)C)cc4n3)n2)c1` (stereo not drawn) [Ex. 20, N,N-dimethyl-3-((4-morpholino-2-(3-(m-tolyl)-1H-pyrazol-1-yl)thieno[3,2-d]pyrimidin-6-yl)methyl)-3-azabicyclo[3.1.0]hexan-6-amine] gave a pIC50 of over 9.00.
`Cc1cccc(-c2ccn(-c3nc(N4CCOCC4)c4sc(C(=O)N5CC[C@@H](N(C)C)C5)cc4n3)n2)c1` [Ex. 21, (R)-(3-(dimethylamino)pyrrolidin-1-yl)(4-morpholino-2-(3-(m-tolyl)-1H-pyrazol-1-yl)thieno[3,2-d]pyrimidin-6-yl)methanone] was tested, and the pIC50 was over 9.00.
With `Cc1cccc(-c2ccn(-c3nc(N4CCOCC4)c4sc(C(=O)N5CCC(C(C)(C)O)CC5)cc4n3)n2)c1` [Ex. 22, (4-(2-hydroxypropan-2-yl)piperidin-1-yl)(4-morpholino-2-(3-(m-tolyl)-1H-pyrazol-1-yl)thieno[3,2-d]pyrimidin-6-yl)methanone] the pIC50 was over 9.00.
`Cc1cccc(-c2ccn(-c3nc(N4CCOCC4)c4sc(C(=O)N5CCC(N(C)C)CC5)cc4n3)n2)c1` [Ex. 23, (4-(dimethylamino)piperidin-1-yl)(4-morpholino-2-(3-(m-tolyl)-1H-pyrazol-1-yl)thieno[3,2-d]pyrimidin-6-yl)methanone] showed a pIC50 of over 9.00.
In the case of `Cc1cccc(-c2ccn(-c3nc(N4CCOCC4)c4sc(C(=O)N5CC[C@H](N(C)C)C5)cc4n3)n2)c1` [Ex. 24, (S)-(3-(dimethylamino)pyrrolidin-1-yl)(4-morpholino-2-(3-(m-tolyl)-1H-pyrazol-1-yl)thieno[3,2-d]pyrimidin-6-yl)methanone], the pIC50 was over 9.00.
`Cc1cccc(-c2ccn(-c3nc(N4CCOCC4)c4sc(C(=O)N5CCN(C)CC5)cc4n3)n2)c1` [Ex. 25, (4-methylpiperazin-1-yl)(4-morpholino-2-(3-(m-tolyl)-1H-pyrazol-1-yl)thieno[3,2-d]pyrimidin-6-yl)methanone] gave a pIC50 of over 9.00.
For `Cc1cccc(-c2ccn(-c3nc(N4CCOCC4)c4sc(C(C)N5CCN(S(C)(=O)=O)CC5)cc4n3)n2)c1` (stereo not drawn) [Ex. 26, 4-(6-(1-(4-(methylsulfonyl)piperazin-1-yl)ethyl)-2-(3-(m-tolyl)-1H-pyrazol-1-yl)thieno[3,2-d]pyrimidin-4-yl)morpholine], the pIC50 was 8.00 to 9.00.
Work on `Cc1cccc(-c2ccn(-c3cc(N4CCOCC4)c4nc(CN5CCN(S(C)(=O)=O)CC5)[nH]c4n3)n2)c1` [Ex. 27, 4-(2-((4-(methylsulfonyl)piperazin-1-yl)methyl)-5-(3-(m-tolyl)-1H-pyrazol-1-yl)-3H-imidazo[4,5-b]pyridin-7-yl)morpholine] yielded a pIC50 of over 9.00.
Molecule `Cc1cccc(-c2ccn(-c3cc(N4CCOCC4)c4nc(CN5CCC(N(C)C)CC5)[nH]c4n3)n2)c1` [Ex. 28, N,N-dimethyl-1-((7-morpholino-5-(3-(m-tolyl)-1H-pyrazol-1-yl)-3H-imidazo[4,5-b]pyridin-2-yl)methyl)piperidin-4-amine] has a pIC50 of over 9.00.
`Cc1cccc(-c2ccn(-c3nc(N4CCOCC4)c4sc(CN5CCOCC5)cc4n3)n2)c1` [Ex. 29, 4-((4-morpholino-2-(3-(m-tolyl)-1H-pyrazol-1-yl)thieno[3,2-d]pyrimidin-6-yl)methyl)morpholine] gave a pIC50 of over 9.00.
`Cc1cccc(-c2ccn(-c3nc(N4CCOCC4)c4nc(CN5CCOCC5)sc4n3)n2)c1` [Ex. 30, 4-((7-morpholino-5-(3-(m-tolyl)-1H-pyrazolyl)thiazolo[5,4-d]pyrimidin-2-yl)methyl)morpholine] gave a pIC50 of 8.00 to 9.00.
`Cc1cccc(-c2ccn(-c3nc(N4CCOCC4)c4sc(CN5CCN(C)CC5)cc4n3)n2)c1` [Ex. 31, 4-(6-((4-methylpiperazin-1-yl)methyl)-2-(3-(m-tolyl)-1H-pyrazol-1-yl)thieno[3,2-d]pyrimidin-4-yl)morpholine] gave a pIC50 of 8.00 to 9.00.
Work on `Cc1cccc(-c2ccn(-c3nc(N4CCOCC4)c4sc(CN5CC(N(C)C)C5)cc4n3)n2)c1` [Ex. 32, N,N-dimethyl-1-((4-morpholino-2-(3-(m-tolyl)-1H-pyrazol-1-yl)thieno[3,2-d]pyrimidin-6-yl)methyl)azetidin-3-amine] yielded a pIC50 of over 9.00.
In the case of `Cc1cccc(-c2ccn(-c3nc(N4CCOCC4)c4sc(CN5CCC(N6CCOCC6)CC5)cc4n3)n2)c1` [Ex. 33, 4-(1-((4-morpholino-2-(3-(m-tolyl)-1H-pyrazol-1-yl)thieno[3,2-d]pyrimidin-6-yl)methyl)piperidin-4-yl)morpholine], the pIC50 was under 7.00.
